Tests used:
Type in all cases: cell-based, mouse
Akt = Akt phosphorylation in N2a cells (western blot); conditions: compared with NGF (FIG. 10)
From the text: The cholinergic marker ChAT and VAChT are known activate the ERK and Akt lower level path for cholinergic gene expression (Williams et al., Neurosci. Lett., 413: 110-114, 2007; Madziar et al., J. Neurochem., 107: 1284-1293, 2007) by controlling the NGF-TrkA signaling pathway. Thus, the present inventor investigated whether ginsenosides Rd and Re regulate activity of ERK and Akt in N2a cells using through western blot analysis. Specifically, N2a cells were lysed in 1% radioimmunoprecipitation assay (RIPA) buffer containing protease and phosphatase inhibitors (Roche, Mannheim, Germany) and whole cell lysates were separated by 10% sodium dodecyl sulfate polyacrylamide gel electrophoresis (SDS-PAGE). After electrophoresis, proteins were transferred onto polyvinylidene fluoride (PVDF) membranes and the membranes were blocked with 5% skim milk in Tris-buffered saline solution containing 0.1% Tween-20. The membrane was then immunoblotted with primary antibodies, anti-phospho-Akt, anti-phospho-extracellular signal-regulated protein kinase (ERK), anti-ChAT and anti-f3-actin (Santa Cruz Biotechnology, Santa Cruz, USA), and this was followed by incubation with horseradish peroxidase-conjugated anti-rabbit or anti-mouse secondary antibodies (Stressgen, USA). Blots were developed using an enhanced chemiluminescence (ECL) solution (Thermo, USA).

MAP-2 [1] = assay: MAP-2 protein immunocytochemistry in N2a cells; conditions: compared with NGF (FIG. 9A)
Experimental: (§1) Followed by the RT-PCR analysis, the present inventor investigated whether ginsenosides Re and Rd induce the expression of MAP-2 and p75 and the differentiation of neurons actually, via immunocytochemistry and morphological analysis using optical microscopic observation.
(§2) Specifically, Cultured N2a cells were fixed in 4% paraformaldehyde (in PBS) for 15 min, washed twice with PBS supplemented with 100 mM glycine for 5 min, and incubated with permeabilization buffer consisting of 0.1% Triton X-100 (Sigma-Aldrich, USA) in PBS for 30 min at room temperature. Blocking was performed with 1% bovine serum albumin (BSA, Sigma-Aldrich, USA) for 30 min at room temperature. Then Microtubule-Associated Protein-2 (MAP-2) or VAChT mouse monoclonal antibody 1:200 (Santa Cruz Biotechnology, USA) was added to 1% BSA in PBS with Tween 20 (PBST) and incubated for 2 h at room temperature. Cells were then washed three times with PBS before fluorescein isothiocyanate (FITC)-conjugated anti-mouse immunoglobulin G (IgG) 1:200 (Cell Signaling Technology, USA) was added to 1% BSA for 1 h at room temperature. The cells were rinsed and counterstained with 4,6-diamidino-2-phenylindole (DAPI, Sigma-Aldrich) for 10 min, followed by two PBS washes. […]

NGF = NGF mRNA expression in N2a cells (quantitative RT-PCR); conditions: N2a cells (FIG. 13)
From the text: (§3) Since NGF-Trk signal pathway upregulates ChAT and VAChT, it is important to know whether ginsenosides Rd and Re regulate Trk activity directly or at least indirectly. Therefore, the inventor investigated whether the expression of ChAT and VAChT was blocked by treating K252a, an inhibitor against protein kinase C (PKC) and Trk together with ginsenoside Rd or Re, in order to determine more closely whether the expression of cholinergic surface markers and the differentiation of neurons by the treatment of ginsenosides Rd and Re are caused whereby they act NGF-TrkA pathway directly. Particularly, N2a cells were treated with or without K252a (50 nM) in the presence of NGF (100 ng/mL), Re (5 μg/mL) or Rd (5 μg/mL) for 48 h. Total RNA and protein lysates were isolated as described in the Example 4-1 (FIG. 12). […] In addition, the present inventor performed quantitative RT-PCR in order to verify whether the treatment of ginsenosides Rd and Re affect the expression of NGF and NGFR in N2a cells.

MAP-2 [2] = assay: MAP-2 mRNA expression in N2a cells (real-time RT-PCR); conditions: 5 μg/ml (FIG. 8)
Experimental: (§4) Specifically, total RNA extracts from N2a cells were prepared using the Trizol method (Invitrogen, USA) and cDNA was synthesized from RNA by reverse transcription of 1 μg of total RNA using a reverse transcription system (Improm-II, Promega, USA) and oligo dT primers in a total volume of 20 μL. PCR amplification was performed using the primers described in Table 2 (Bioneer, Korea). Quantitative real-time PCR reactions were run on a Rotor-Gene 6000 (Corbett Research, Australia) using SensiMix™ SYBR Hi-ROX Kit (Bioline, U.K.) in 20 μL reaction mixtures. Each real-time-PCR master mix contained 10 μL 2× enzyme master mix, 7.0 μL RNase free water, 1 μL of each primer (10 pM each), and 1 μL diluted template. The PCR was performed with an initial pre-incubation step for 15 min at 95° C., followed by 45 cycles of 95° C. for 15 s, annealing at 52° C. for 15 s, and extension at 72° C. for 10 s. Melting curve analysis was used to confirm formation of the expected PCR product, and products from all assays were additionally tested with 1.2% agarose gel electrophoresis to confirm the correct lengths. […] Relative sample expression levels were calculated using Rotor-Gene 6000 Series Software 1.7, and were expressed relative to β-actin and corrected for between-run variability. Data for the experimental samples were expressed as a fold unit the internal control gene. […]

NGFR (p75) = NGFR (p75) mRNA expression in N2a cells (quantitative RT-PCR); conditions: N2a cells (FIG. 13)
From the text: as §3

CHT1 = CHT1 expression in N2a cells; conditions: N2a cells (FIG. 7E)
Experimental: as §4

N2a cells = assay: Morphological analysis of N2a cells (optical microscopy); conditions: untreated cells mostly rounded (FIG. 9C)
Experimental: as §1, §2

p75 = p75 protein immunocytochemistry in N2a cells; conditions: compared with NGF (FIG. 9B)
Experimental: as §1, §2

| SMILES | Akt activation (phosphorylation) (Akt) | production of MAP-2 protein (MAP-2 [1]) | NGF mRNA level (NGF) | expression of MAP-2 mRNA (MAP-2 [2]) | NGFR (p75) mRNA level (NGFR (p75)) | expression of CHT1 (CHT1) | morphological changes of N2a cells (N2a cells) | p75 protein expression (p75) |
| --- | --- | --- | --- | --- | --- | --- | --- | --- |
| CC(C)=CCC[C@](C)(O[C@@H]1O[C@H](CO)[C@@H](O)[C@H](O)[C@H]1O)[C@H]1CC[C@]2(C)[C@@H]1[C@H](O)C[C@@H]1[C@@]3(C)CC[C@H](O[C@@H]4O[C@H](CO)[C@@H](O)[C@H](O)[C@H]4O[C@@H]4O[C@H](CO)[C@@H](O)[C@H](O)[C@H]4O)C(C)(C)[C@@H]3CC[C@]12C [ginsenoside Rd] | could activate ERK and Akt with phosphorylation as much as NGF | stimulated effectively the production of MAP-2 protein | significantly increased | significantly increased | significantly increased | increased | induced the production of distinctive multiple projections | switched to p75-positive N2a cells to the same or more extent as NGF |
| CC(C)=CCC[C@](C)(O[C@@H]1O[C@H](CO)[C@@H](O)[C@H](O)[C@H]1O)[C@H]1CC[C@]2(C)[C@@H]1[C@H](O)C[C@@H]1[C@@]3(C)CC[C@H](O)C(C)(C)[C@@H]3[C@@H](O[C@@H]3O[C@H](CO)[C@@H](O)[C@H](O)[C@H]3O[C@@H]3O[C@@H](C)[C@H](O)[C@@H](O)[C@H]3O)C[C@]12C [ginsenoside Re] | could activate ERK and Akt with phosphorylation as much as NGF | stimulated effectively the production of MAP-2 protein | significantly increased | significantly increased | significantly increased | increased | induced the production of distinctive multiple projections | switched to p75-positive N2a cells to the same or more extent as NGF |

From patent US20160022751A1, “NOVEL COMPOSITION FOR TREATING ALZHEIMER'S DISEASE AND IMPROVING COGNITIVE FUNCTION OF ALZHEIMER'S PATIENTS” (GANGNEUNG-WONJU NATIONAL UNIVERSITY INDUSTRY ACADEMY …, priority 2014, published 2016)
